Here are results for 14 compounds from patent US20230312577A1, “DUAL KINASE-BROMODOMAIN INHIBITORS” (MONASH UNIVERSITY, priority 2020, published 2023).

pIC50: −log10 of the molar value. Bounds are passed on as bounds.

A word on the pIC50: it is the IC50 on a negative log10 scale, so that one unit is a factor of ten. One may read the GI50 as the concentration giving 50% growth inhibition.

Assay [1] deals with PI3K. Briefly: PI3K enzyme activity assay (luminescence, ATP consumption, Kinase-Glo). The class given is biochemical. Here is the method:
(§1) PI3K activity was determined using a luminescence assay measuring ATP consumption as described previously (J.-A. Pinson, Z. Zheng, M. S. Miller, D. K. Chalmers, I. G. Jennings, P. E. Thompson, L-Aminoacyl-triazine derivatives are isoform-selective PI3Kβ inhibitors that target nonconserved Asp862 of PI3Kb, ACS Med. Chem. Lett. 4 (2013) 206-210). PI3K enzyme activity was determined in 25 μl of 20 mM HEPES pH 7.5, 5 mM MgCl2 with 180 μM phosphatidyl inositol and 10 μMATP. After a 60 min incubation at room temperature the reaction was stopped by the addition of Kinase-Glo (Promega) followed by a further 15 min incubation. Luminescence was then read using a Fluostar plate reader (BMGLabtech).
(§2) Inhibitors were diluted in 20% (v/v) DMSO at the indicated concentrations in order to generate a concentration versus inhibition of enzyme activity curve which was then analysed using GraphPad Prism version 8.00 for Windows, (GraphPad Software, San Diego California USA) in order to calculate the IC50. Standard deviations for the calculated IC50's are within 25% of the mean.
On the technique in general: Kinase-Glo measures the ATP left after a reaction by luminescence.

Assay [2] concerns the target T1, PI3K.
T1 construct: PI3K Enzyme Activity Assay IC50 (nM); other: 10 μM ATP, 180 μM phosphatidyl inositol, 60 min
The assay is described as above. The assay is classed as biochemical. The following applies: 10 μM ATP, 180 μM phosphatidyl inositol, 60 min. The method, then:
as §1, §2

Assay [3] concerns the target GST-BRD4 (binding domain 1, amino acids 44-168) (Homo sapiens, UniProt O60885). The experiment in a line: Bromodomain binding assay (FRET). The following applies: for pIC50: BRD4 binding domain 1, tetracetylated histone 4 peptide. Here is the method: Inhibition of bromodomain binding was measured using a FRET (fluorescence resonance energy transfer) based assay. […] In the presence of the two detection reagents, streptavidin D2 and anti-GST-Eu (CisBio) binding trig-gers a FRET signal detected by fluorescence at 665 nm as measured using a Pherastar reader (BMG Labtech). Data was analysed using GraphPad Prism version 8.00 for Windows, (GraphPad Software, San Diego California USA) in order to calculate the IC50. Standard deviations for the calculated IC50's are within 25% of the mean.

The test system of a further assay is OPM2 cells. The experiment in a line: Cell proliferation assay (ViaLight, cellular ATP). The assay is classed as cell-based. The following applies: Homo sapiens, OPM-2, 120 h, 5 days, 5 μM to 1 nM. The procedure, abridged:
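1×10^3 cells per well exposed to compounds at final 5 μM to 1 nM for 5 days. Viability read as cellular ATP by ViaLight luminescence, technical triplicates. GI50 computed from the dose–response.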

For assay [4], the system named is MLL-AF9 cells (IBET-151-sensitive and IBET-151-resistant). Briefly: Apoptosis assay in BET-inhibitor-resistant cells (Annexin V/PI). The class given is cell-based, mouse. Particulars: 1 μM, 72 h. The method, then: Mouse AML cells; MLL-AF9 (IBET-151-sensitive and IBET-151-resistant) (5×10^4) were treated with indicated compounds for 72 h. Apoptotic analysis was performed by flow cytometry using Annexin V/propidium iodide (PI) stains. Data were collected on a BD LSR-Fortessa X20 (BD Biosciences) and analysed using FlowJo Software, version 10.0.7 (Tree Star). IC50 were calculated using the GraphPad Prism Software Version 7.0c. Data are representative of biological triplicates.

For `CC(=O)N1c2ccc(-c3ccc(CNC(=O)c4cn5cc(-c6cnc(N)nc6)nc(N6CCOCC6)c5n4)cc3)cc2CC[C@H]1C` [Cpd 034, (R)-N-(4-(1-acetyl-2-methyl-1,2,3,4-tetrahydroquinolin-6-yl)benzyl)-6-(2-aminopyrimidin-5-yl)-8-morpholinoimidazo[1,2-a]pyrazine-2-carboxamide], in the assay on PI3K [1], the “selectivity (PI3K)” value was “selective PI3K inhibitor”.

Turning to `CC(=O)N1c2ccc(-c3ccc(CN4CCN(C(=O)c5cn6cc(-c7cnc(N)nc7)nc(N7CCOCC7)c6n5)CC4)s3)cc2CCC1C` (centres unmarked) [Cpd 004, 1-(6-(5-((4-(6-(2-Aminopyrimidin-5-yl)-8-morpholinoimidazo[1,2-a]pyrazine-2-carbonyl)piperazin-1-yl)methyl)thiophen-2-yl)-2-methyl-3,4-dihydroquinolin-1(2H)-yl)ethan-1-one], the pIC50 (against PI3K [2]; in assay [3]) was 6.30 to 7.00 in each case.

`CC(=O)N1c2ccc(-c3ccc(C(=O)N4CCN(C(=O)c5cn6cc(-c7cnc(N)nc7)nc(N7CCOCC7)c6n5)CC4)cc3)cc2CCC1C` (centres unmarked) [Cpd 001, 1-(6-(4-(4-(6-(2-Aminopyrimidin-5-yl)-8-morpholinoimidazo[1,2-a]pyrazine-2-carbonyl)piperazine-1-carbonyl)phenyl)-2-methyl-3,4-dihydroquinolin-1(2H)-yl)ethan-1-one]: the GI50 in the assay with OPM2 cells lay within 100 to 500 nM. Besides, the pIC50 (against PI3K [2]; in assay [3]) was below 6.30 each time.

For `CC(=O)N1c2ccc(-c3ccc(C(=O)NCCNC(=O)c4cn5cc(-c6cnc(N)nc6)nc(N6CCOCC6)c5n4)cc3)cc2CCC1C` (centres unmarked) [Cpd 009, N-(2-(4-(1-Acetyl-2-methyl-1,2,3,4-tetrahydroquinolin-6-yl)benzamido)ethyl)-6-(2-ami-nopyrimidin-5-yl)-8-morpholinoimidazo[1,2-a]pyrazine-2-carboxamide], the GI50 with OPM2 cells was at most 100 nM. The pIC50 on PI3K [2] was 6.30 to 7.00; in assay [3] it was at least 7.00.

Consider `COc1cc2c(cc1-c1c(C)noc1C)ncc1[nH]c(=O)n([C@H](C)c3ccccn3)c12` [I-BET151, reference compound], for which the “apoptosis in I-BET151-resistant MLL-AF9 cells” value in assay [4] is “resistance to I-BET151 drug in the resistant cells was confirmed”.

In the assay on OPM2 cells, `CC(=O)N1c2ccc(-c3ccc(C(=O)NCCCNC(=O)c4cn5cc(-c6cnc(N)nc6)nc(N6CCOCC6)c5n4)cc3)cc2CC[C@@H]1C` [Cpd 013, (S)-N-(3-(4-(1-Acetyl-2-methyl-1,2,3,4-tetrahydroquinolin-6-yl)benzamido)propyl)-6-(2-aminopyrimidin-5-yl)-8-morpholinoimidazo[1,2-a]pyrazine-2-carboxamide] gave a GI50 above 500 nM. In addition, the negative logarithm of the IC50 (pIC50) (against PI3K [2]; in assay [3]) was at least 7.00 throughout.

Regarding `CC(=O)N1c2ccc(-c3ccc(CNC(=O)c4cn5cc(-c6cnc(N)nc6)nc(N6CCOCC6)c5n4)cc3)cc2CCC1C` (centres unmarked) [Cpd 002, N-(4-(1-Acetyl-2-methyl-1,2,3,4-tetrahydroquinolin-6-yl)benzyl)-6-(2-aminopyrimidin-5-yl)-8-morpholinoimidazo[1,2-a]pyrazine-2-carboxamide], the GI50 with OPM2 cells was at most 100 nM. Further, the results for the pIC50 (against PI3K [2]; in assay [3]) were at least 7.00 and 6.30 to 7.00, respectively.

`CC(=O)N1c2ccc(-c3ccc(CNC(=O)CNC(=O)c4cn5cc(-c6cnc(N)nc6)nc(N6CCOCC6)c5n4)cc3)cc2CCC1C` (centres unmarked) [Cpd 003, N-(2-((4-(1-Acetyl-2-methyl-1,2,3,4-tetrahydroquinolin-6-yl)benzyl)amino)-2-oxoethyl)-6-(2-aminopyrimidin-5-yl)-8-morpholinoimidazo[1,2-a]pyrazine-2-carboxamide] registered a GI50 in the assay with OPM2 cells of 100 to 500 nM. Further, the negative-log IC50 (pIC50) was at least 7.00 against PI3K [2] and below 6.30 in assay [3].

Regarding `CC(=O)N1c2ccc(-c3ccc(C(=O)CN4CCN(C(=O)c5cn6cc(-c7cnc(N)nc7)nc(N7CCOCC7)c6n5)CC4)cc3)cc2CCC1C` (centres unmarked) [Cpd 007, 1-(4-(1-acetyl-2-methyl-1,2,3,4-tetrahydroquinolin-6-yl)phenyl)-2-(4-(6-(2-aminopyrimidin-5-yl)-8-morpholinoimidazo[1,2-a]pyrazine-2-carbonyl)piperazin-1-yl)ethan-1-one], the negative logarithm of the IC50 (pIC50) is at least 7.00 at PI3K [2] and below 6.30 in assay [3].

Turning to `CC(=O)N1c2ccc(-c3ccc(C(=O)CNC(=O)c4cn5cc(-c6cnc(N)nc6)nc(N6CCOCC6)c5n4)cc3)cc2CCC1C` (centres unmarked) [Cpd 008, N-(2-(4-(1-Acetyl-2-methyl-1,2,3,4-tetrahydroquinolin-6-yl)phenyl)-2-oxoethyl)-6-(2-aminopyrimidin-5-yl)-8-morpholinoimidazo[1,2-a]pyrazine-2-carboxamide], the pIC50 was at least 7.00 at PI3K [2] and below 6.30 in assay [3].

In the assay on OPM2 cells, `CC(=O)N1c2ccc(-c3ccc(CNC(=O)c4cn5cc(-c6cnc(N)nc6)nc(N6CCOCC6)c5n4)s3)cc2CCC1C` (centres unmarked) [Cpd 005, N-((5-(1-Acetyl-2-methyl-1,2,3,4-tetrahydroquinolin-6-yl)thiophen-2-yl)methyl)-6-(2-aminopyrimidin-5-yl)-8-morpholinoimidazo[1,2-a]pyrazine-2-carboxamide] displayed a concentration for 50% growth inhibition (GI50) of at most 100 nM. Moreover, the figures for the negative logarithm of the IC50 (pIC50) (against PI3K [2]; in assay [3]) were at least 7.00 and 6.30 to 7.00, respectively.

On to `CC(=O)N1c2ccc(-c3ccc(CNC(=O)c4cn5cc(-c6cnc(N)nc6)nc(N6CCNCC6)c5n4)cc3)cc2CC[C@@H]1C.Cl` [Cpd 035, (S)-N-(4-(1-acetyl-2-methyl-1,2,3,4-tetrahydroquinolin-6-yl)benzyl)-6-(2-aminopyrimidin-5-yl)-8-(piperazin-1-yl)imidazo[1,2-a]pyrazine-2-carboxamide hydrochloride], for which, in the assay with OPM2 cells, the GI50 is at most 100 nM. In addition, the “selectivity (BRD-4)” value in assay [3] is “selective BRD-4 inhibitor”.

Compound `CC(=O)N1c2ccc(-c3ccc(CNC(=O)c4cc5nc(-c6cnc(N)nc6)nc(N6CCOCC6)c5s4)cc3)cc2CC[C@@H]1C` [Cpd 030, (S)-N-(4-(1-acetyl-2-methyl-1,2,3,4-tetrahydroquinolin-6-yl)benzyl)-2-(2-aminopyrimidin-5-yl)-4-morpholinothieno[3,2-d]pyrimidine-6-carboxamide] gave a 50% growth inhibitory concentration (GI50) in the assay with OPM2 cells of at most 100 nM. The compound further showed a pIC50 on PI3K [2] below 6.30.

`CC(=O)N1c2ccc(-c3ccc(CNC(=O)c4sc5c(N6CCOCC6)nc(-c6cnc(N)nc6)nc5c4C)cc3)cc2CC[C@@H]1C` [Cpd 032, (S)-N-(4-(1-acetyl-2-methyl-1,2,3,4-tetrahydroquinolin-6-yl)benzyl)-2-(2-aminopyrimidin-5-yl)-7-methyl-4-morpholinothieno[3,2-d]pyrimidine-6-carboxamide] returned a concentration for 50% growth inhibition (GI50) in the assay with OPM2 cells of at most 100 nM. Moreover, the pIC50 at PI3K [2] is below 6.30.
